{"source": "a melting point compilation (Tetko et al.; mined from patent text by program, amines drawn as free bases though some values may be those of a salt)", "note": "Residues, ends and D or L forms follow the SMILES beside them. *: point of attachment. Cbz = O=C(OCc1ccccc1)*", "data": [{"units": {"melting point": "°C"}, "values": [{"smiles": "CCn1nnnc1Cc1ccc(N)cc1", "melting point": "94 to 95"}, {"smiles": "N#Cc1cnc2cc(Cl)c([N+](=O)[O-])cc2c1Nc1ccc(F)c(Cl)c1", "melting point": "259 to 263"}, {"smiles": "CN(C(=O)c1cc(C(F)(F)F)cc(C(F)(F)F)c1)C(CCCC(=O)O)Cc1c[nH]c2ccccc12", "note": "(configuration not stated)", "melting point": "152 to 157"}, {"smiles": "COc1ccc(C(=O)N2CCCC3=C2CCc2cc(Cl)ccc23)cc1", "melting point": "182 to 183"}, {"smiles": "OC1(c2ccc(Cl)cc2)CCN(CCCc2nnc3n2CCCCC3)CC1", "melting point": 163}, {"smiles": "O=[N+]([O-])c1ccc(-c2ccc3nncn3n2)cc1C(F)(F)F", "melting point": "129 to 135"}, {"smiles": "CC(C)S(=O)(=O)c1cnc(Cl)c(Cl)c1", "melting point": 146}, {"smiles": "CCNC(=O)N1CCc2cc(S(=O)(=O)N3CC(c4ccccc4)NC3=O)ccc21", "note": "(configuration not stated)", "melting point": 127}, {"smiles": "CC(=O)NCCOc1cc(-c2ccccc2)on1", "melting point": "144 to 145"}, {"smiles": "CNC(=O)c1cc(-c2ccc(OC)cc2)n[nH]c1=O", "melting point": "246 to 247"}, {"smiles": "CNS(=O)(=O)c1ccc(Cl)c(C)c1Cl", "melting point": 118}, {"smiles": "CN(C)C=CC(=O)c1ccccc1", "melting point": "88 to 91"}, {"smiles": "CCCCOC(=O)c1cc2c(cn1)[nH]c1ccccc12", "melting point": "211 to 212"}, {"smiles": "O=C(O)c1cccc2cc(Oc3c(Cl)cc(NS(=O)(=O)c4ccc(Cl)cc4Cl)cc3Cl)cnc12", "melting point": "263 to 266"}, {"smiles": "Oc1cccnc1CC1(O)CN2CCC1CC2", "note": "(configuration not stated)", "melting point": "270 to 272"}, {"smiles": "CC(=O)N(c1ccc(N2CCN(C)CC2)cc1)c1ncc2c(n1)S/C(=C/c1cn(C(C)=O)c3ccccc13)C(=O)N2", "melting point": "289 to 292"}, {"smiles": "Cc1cc(=O)n2cccc(SC(=O)N(C)C)c2n1", "melting point": "165 to 167"}, {"smiles": "FC(F)(F)c1cccc(CSc2nnc(-c3ccc4c(c3)CCO4)o2)c1", "melting point": "88 to 90"}, {"smiles": "CC(CCCCc1ccc(F)cc1)NCc1c(CO)ccc(O)c1CO", "note": "(configuration not stated)", "melting point": "72 to 77"}, {"smiles": "COc1cc(C(=O)NS(=O)(=O)c2ccccc2C)ccc1Cc1cn(C(=O)NC(c2ccccc2)c2ccccc2)c2ccc(NC(=O)OC3CCCC3)cc12", "melting point": "253 to 254"}, {"smiles": "Cc1c(CC[Si](Cl)(Cl)Cl)c(CC[Si](Cl)(Cl)Cl)c(C)c(CC[Si](Cl)(Cl)Cl)c1CC[Si](Cl)(Cl)Cl", "melting point": "220 to 224"}, {"smiles": "FC(F)(F)c1cccc(C(Cl)(Cl)Cl)c1Cl", "melting point": "32 to 33"}, {"smiles": "Cc1nn(C)c(NCC(C)(C)C)c1N", "melting point": "65 to 69"}, {"smiles": "NCCNc1nc2ccccc2n(-c2ccc(Cl)cc2)c1=O", "melting point": "173 to 174"}, {"smiles": "CNC(=O)c1cc2c(Oc3ccc(/C=C/C(=O)NCC(O)CO)cc3)cncc2s1", "note": "(configuration not stated)", "melting point": "225 to 226"}, {"smiles": "COC(=O)c1cnc(C(=O)OC)c(SCc2cccc(C(F)(F)F)c2)c1", "melting point": "102 to 106"}, {"smiles": "COc1ccc(-c2cnc3[nH]cc(C(N)=O)c3n2)cc1OC", "melting point": "290 to 292"}, {"smiles": "CN1CCC(c2n[nH]c3ccccc23)CC1", "melting point": "168 to 170"}, {"smiles": "CSc1c2c(nn1C)N(c1c(C)cc(C)cc1C)CCC2", "melting point": "90.3 to 91.7"}, {"smiles": "CN(C)S(=O)(=O)c1cccc(NN)n1", "melting point": "117 to 120"}, {"smiles": "Cc1ccc(-n2nc(Cl)cc2-c2ccc(S(C)(=O)=O)cc2)cc1F", "melting point": "160 to 162"}, {"smiles": "CC(C)(C)COc1c(-c2ccc(S(N)(=O)=O)cc2)cnn(-c2ccc(F)c(F)c2)c1=O", "melting point": "173 to 175"}, {"smiles": "O=C(O)CCCCCCCCCC#CC#Cc1ccco1", "melting point": "62.6 to 63.5"}, {"smiles": "CCSc1ncn(-c2ccc(O)cc2)n1", "melting point": 170}, {"smiles": "Cc1cc2c(cc1Cl)C(CC(=O)O)(c1ccccc1OC(C)C)C(=O)N2", "note": "(configuration not stated)", "melting point": "148 to 150"}, {"smiles": "CC(C)CC(NC(=O)CCc1ccccc1)C(=O)N[C@@H](Cc1ccccc1)C(=O)CSCc1ccco1", "note": "(some centres not stated)", "melting point": "117 to 119"}, {"smiles": "CCOc1nsc(S(C)(=O)=O)c1S(C)(=O)=O", "melting point": "158 to 160"}, {"smiles": "Cc1cccc2c(=O)cc(C3CCCC3)oc12", "melting point": "51 to 52"}, {"smiles": "CC(C)=CCc1c(O)ccc(C(=O)C=Cc2ccc(O)cc2O)c1O", "melting point": "150 to 151"}, {"smiles": "CCOC(=O)c1cn(-c2c(F)cc(F)cc2F)c2nc(Cl)c(F)cc2c1=O", "melting point": "158 to 160"}, {"smiles": "N#Cc1ccc(OCc2ccccc2)cc1O", "melting point": 130}, {"smiles": "COC(=O)OC(C)OC1=C(C(=O)Nc2ccccn2)N(C)S(=O)(=O)c2ccccc21", "note": "(configuration not stated)", "melting point": "150 to 151"}, {"smiles": "CC(C)c1cccc(C(C)C)c1NC(=O)N(Cc1ccc(N(C)C)cc1)c1ccc(C(F)(F)F)cc1", "melting point": "129 to 130"}, {"smiles": "O=C1CCCc2ccc(OCCCCN3CCN(c4cccc5c4CCC5)CC3)nc2N1", "melting point": "207 to 208"}, {"smiles": "CCOC(=O)CCC(C#N)(c1ccccc1)C(C)C", "note": "(configuration not stated)", "melting point": "82 to 84"}, {"smiles": "CN(C)C(C)(C)c1ccc(-c2nc(Nc3ccc(F)cc3)ncc2C#N)cc1", "melting point": 179}, {"smiles": "Cc1cc2c(cc1C)C(C(=O)O)SCC2=O", "note": "(single isomer, unassigned; (-))", "melting point": "177 to 178"}, {"smiles": "CC(O)c1cc(C#C[Si](C)(C)C)c(O)c(Cl)n1", "note": "(configuration not stated)", "melting point": "97 to 98"}, {"smiles": "COC(=O)c1ccc(OC)c2c1OCCCO2", "melting point": 212}, {"smiles": "O=C(O)c1oc2ccccc2c1CCc1ccccc1", "melting point": "169 to 172"}, {"smiles": "NNc1nc(Cl)nc2cccc(F)c12", "melting point": "> 280"}, {"smiles": "N#CCCNNC(=S)c1ccc(OCc2ccccc2)cc1", "melting point": 135}, {"smiles": "Cc1cccc2c1N(CC(=O)N1CC3CCC(CC3)C1)CC(NC(=O)Nc1cccc(Br)c1)N=C2c1ccccc1F", "note": "(configuration not stated)", "melting point": "> 250"}, {"smiles": "CCCCCCCCCCCCc1ccc(S(=O)(=O)Nc2nnc(CC)s2)cc1", "melting point": "93 to 94"}, {"smiles": "Cc1c(C(=O)O)ccc(S(C)(=O)=O)c1N", "melting point": "197 to 198"}, {"smiles": "Fc1ccc(-c2ccn(CC3CCNCC3)c2-c2ccncc2)cc1", "melting point": "174 to 176"}, {"smiles": "COc1ccc2cc(-c3noc(C)n3)c(=O)oc2c1", "melting point": "218 to 220"}, {"smiles": "Cc1cc(N)nc(C)c1-c1ccc(Cl)cc1", "melting point": "148 to 152"}, {"smiles": "COCCCCC(=O)c1cc(C(=O)O)c2cc(Cc3ccc(F)cc3)cnc2c1O", "melting point": "216 to 218"}, {"smiles": "Cn1cc(NC=O)cc1C(=O)O", "melting point": "208 to 210"}, {"smiles": "CC(C)(C)c1ccc([Si](C)(C)COc2cc(C(C)(C)C)c(O)c(C(C)(C)C)c2)cc1", "melting point": "114 to 115"}, {"smiles": "Cc1nc(N)n(C)c(=O)c1CCN1CCN(c2noc3ccccc23)CC1", "melting point": 201}, {"smiles": "COc1ccc(-c2cc(C(C)(C)CC(C)(C)C)cc(-n3nc4ccc(C(F)(F)F)cc4n3)c2O)cc1", "melting point": "99 to 102"}, {"smiles": "CCOC(=O)c1cn(-c2ccccc2)nc1OCc1ccc(OCc2nc(-c3ccccc3)oc2C)c(OC)c1", "melting point": "160 to 161"}, {"smiles": "CCCn1cc2c(C3C(=O)Nc4ccc(Br)cc43)nc(NCCc3cccnc3)nc2n1", "note": "(configuration not stated)", "melting point": "294 to 297"}, {"smiles": "CC(C)NC(=O)N1CC(Oc2cccc(C(F)(F)F)c2)C1", "melting point": "150 to 152"}, {"smiles": "CON1CCC2(CC1)OC(=O)C(c1cc(C)ccc1C)=C2O", "melting point": "205 to 208"}, {"smiles": "CN1CCN(c2cccc3ccc(NC(N)=S)cc23)CC1", "melting point": "194 to 195"}, {"smiles": "CCOC(=O)c1cnc2c(cnn2CC)c1Nc1ccccc1N", "melting point": "126 to 128"}, {"smiles": "O=C(c1ccc(Cl)cc1)c1ccc(SC(F)(F)F)cc1", "melting point": "78 to 79"}, {"smiles": "COc1ccc2c(CBr)c(F)ccc2c1C(F)(F)F", "melting point": "97 to 100"}, {"smiles": "COc1cc(C)c(C)cc1NC(=O)N1CCN(c2ccccc2)CC1", "melting point": "143 to 144"}, {"smiles": "S=c1[nH]c2ccccc2cc1-c1ccccc1", "melting point": "242 to 244"}, {"smiles": "O=Cc1cccc2cncn12", "melting point": "138 to 140"}, {"smiles": "CC(=CC(=O)O)Sc1c[nH]c2ccccc12", "melting point": "201 to 202"}, {"smiles": "COc1nc2cc(Cl)cc(C#CCO)c2nc1OC", "melting point": "137 to 140"}, {"smiles": "Cn1c(=O)c(=NO)nc(-c2ccccc2)c2cnccc21", "melting point": "223 to 224"}, {"smiles": "COc1cc2nc(C)c(CO)nc2cc1OC", "melting point": "176 to 177"}, {"smiles": "CCNC(=O)c1sc(Oc2ccc3c(c2)OCO3)c2c1CCc1cnn(C)c1-2", "melting point": "138 to 139"}, {"smiles": "CCOC(=O)CCCCCC=C(NCCC(O)C1CCCCC1)C(=O)OCC", "note": "(configuration not stated)", "melting point": "97 to 99"}, {"smiles": "Fc1cccc(F)c1-c1cnnc(-c2ccc(-c3ccc(OC(F)(F)F)cc3)cc2)n1", "melting point": "159 to 160"}, {"smiles": "CO/N=C(/C(N)=O)c1ccccc1Oc1ccccc1", "melting point": "98 to 99"}, {"smiles": "CN(C(=O)OCC(Cl)(Cl)Cl)C1CN(C(=O)Nc2ccc(C(F)(F)F)cc2)N=C1c1ccc(Cl)cc1", "note": "(configuration not stated)", "melting point": "169 to 170"}, {"smiles": "CC(C)(C1OCCO1)C(O)(COc1cccc2ccccc12)Cn1ccnc1", "note": "(configuration not stated)", "melting point": 126}, {"smiles": "O=C1CN(C(=O)c2ccco2)c2ccccc2N1", "melting point": "229 to 230"}, {"smiles": "CC(C)(C)OC(=O)N(C(=O)OC(C)(C)C)c1cc(-c2ccc([N+](=O)[O-])cc2)n(C(=O)OC(C)(C)C)n1", "melting point": "154 to 155"}, {"smiles": "OCc1cccc(-c2cccc(F)c2)c1-c1cccc(F)c1", "melting point": "114 to 116"}, {"smiles": "O=c1[nH]c2ccc(-c3cccc([N+](=O)[O-])c3)cc2[nH]1", "melting point": "324 to 325"}, {"smiles": "CCc1cc(C#N)ccc1N=C1OCC(C)(C)N1C1CCCC1", "melting point": "112 to 114"}, {"smiles": "O=[N+]([O-])c1cc(OCc2ccccc2)cc(C2CO2)c1", "note": "(configuration not stated)", "melting point": "54 to 55"}, {"smiles": "CC(=O)c1ccc(C(C)=O)s1", "melting point": "171 to 173"}, {"smiles": "CC(C(=O)O)C1CCCc2c1n(Cc1ccc(Cl)cc1)c1ccc(F)cc21", "note": "(configuration not stated)", "melting point": "203 to 205"}, {"smiles": "CCOCc1nc2c(N)nc3ccccc3c2n1NCCC(C)C", "melting point": "129 to 132"}, {"smiles": "O=c1[nH][nH]c(=O)c(-c2c(F)cc(F)cc2F)c1-c1ccc(Br)cc1", "melting point": "134 to 137"}, {"smiles": "CC1=C(OC(=O)C(C)(C)C)C2=C(O)N(I)CN(OC(=O)C(C)(C)C)C2=N1", "melting point": 155}, {"smiles": "CCOC(=O)COn1ccncc1=O", "melting point": "98 to 100"}, {"smiles": "Cc1cc(C)cc(C(=O)c2c(-c3ccc(OCCN(C)C)cc3)oc3ccccc23)c1", "melting point": "132 to 135"}, {"smiles": "NC(=O)CCC(NC(=O)OCc1ccccc1)C(=O)NCC(=O)NCC(=O)NC(CO)C(=O)NC(CC(N)=O)C(=O)NC(Cc1ccccc1)C(N)=O", "note": "(configuration not stated) (Cbz-QGGSNF-NH2; configuration not given here)", "melting point": "225 to 227"}, {"smiles": "O=C1O[C@@H](Cn2ccnn2)CN1c1ccc(-c2ccc(CN3CCOCC3)nc2)c(F)c1", "melting point": 175}, {"smiles": "Nc1ccsc1C(=O)c1ccccc1", "melting point": "100 to 102"}, {"smiles": "CN(C)C=C(C=CC#N)c1ccccc1", "melting point": "77 to 83"}, {"smiles": "CCN(CC)CCOc1ccc(Nc2ncc3c(n2)N(c2cccc(CCN)c2)C(=O)N(c2ccc(Cl)cc2Cl)C3)cc1", "melting point": 108}]}]}
